# Entries after “also recorded” stand apart in the source; their conditions may differ. Like-named read-outs stand apart in the source and are kept apart here.
# What was measured:
# ACKR3 = molecular target: T1, ACKR3 (Homo sapiens, UniProt P25106); test: Presto-Tango β-arrestin 2 recruitment assay for ACKR3; type: cell-based
# T1 construct: host or cells: HTLA cells (HEK293 line stably expressing a tTA-dependent luciferase reporter and a β-arrestin2-TEV fusion gene)
# Description: (§1) FIGS. 6A-6F show Presto-Tango β-arrestin 2 recruitment assays for CXCR4 (A-C) and ACKR3 (D-F). RLU %: % of the luminescence signal for 1 μM CXCL12α. N=9 for CXCL12a and n=3 for all other proteins.
# (§2) Presto-Tango β-arrestin 2 recruitment assay—The PRESTO-Tango (parallel receptorome expression and screening via transcriptional out-put, with transcriptional activation following arrestin translocation) assay was performed as recently described. The Tango plasmids were a gift from Dr. Bryan Roth (all from Addgene). HTLA cells (2.5×10^5/well) were seeded in a 6-well plate and transfected with 1.5 μg of the Tango plasmids using Lipofectamine 3000 (ThermoScientific). The following day, transfected HTLA cells (1×10^5 cells/well) were plated onto Poly-L-Lysine pre-coated 96-well micro-plates and allowed to attach to the plate surface for at least 4 hours prior to treatment. Proteins used for treatment were prepared in twice the final concentration in culture media, added at a 1:1 vol/vol ratio and incubated overnight at 37° C., 5% CO2 in a humidified environment. The following morning, media was removed from cell culture plates and replaced with a 100 μL 1:5 mixture of Bright-Glo (Promega) and 1×HBSS, 20 mM HEPES solution. Plates were then incubated at room temperature before measuring luminescence on a Biotek Synergy II plate reader.
# CXCR4 = molecular target: T2, CXCR4 (Homo sapiens, UniProt P61073); test: Presto-Tango β-arrestin 2 recruitment assay for CXCR4; type: cell-based
# T2 construct: host or cells: HTLA cells (HEK293 line stably expressing a tTA-dependent luciferase reporter and a β-arrestin2-TEV fusion gene)
# Description: as §1, §2
# HULEC-5a = test: Thrombin dose-response in HULEC-5a monolayer permeability assay; type: cell-based, human; details: read-out: EC50 for thrombin-induced impairment of HULEC-5a barrier function
# Description: FIGS. 4A-4D show effects of CXCL12 and ubiquitin on thrombin-induced impairment of HULEC-5a monolayer permeability. (A) HULEC-5a were grown to a confluent monolayer on collagen-coated permeable membranes and then exposed to different concentration of thrombin for 10 min, followed by the addition of FITC-dextran. Endothelial permeability was assessed by measuring the amount of FITC-dextran that permeated through the cell monolayer. No cells: 100% permeability. RFU: Relative fluorescence units. N=3 in quadruplicate. (B) Dose-response curves for thrombin-induced permeability, data from A. 100% permeability=permeability in the absence of HULEC-5a. Open squares: Permeability at t=55 min. Light grey squares: Permeability at t=135 min. Dark grey squares: Permeability at t=255 min. (C/D) HULEC-5a were grown to a confluent monolayer on collagen-coated permeable membranes and then exposed to 50 nM of thrombin or vehicle. After 10 min, thrombin-exposed cells were treated with vehicle, CXCL12 (50 nM) (C) or ubiquitin (50 nM) (D), followed by the addition of FITC-dextran. The experimental conditions are indicated. Endothelial permeability was assessed by measuring the amount of FITC-dextran that permeated through the cell monolayer. RFU: Relative fluorescence units. N=3 in quadruplicate. *: p<0.05 vs. thrombin/vehicle (2-way ANOVA/Bonferroni's multiple comparison post hoc test).
# (§3) In vitro vascular permeability assays—Permeability assays were obtained from Millipore (ECM642) and performed as per manufacturer's instructions. In brief, 96-well collagen-coated permeability assay plates were pre-hydrated for 15 min, 5×10^5 cells were seeded on each well and grown to a confluent monolayer for 48 hours. Fluorescein isothiocyanate (FITC)-dextran (20 μg/mL) was then added on top of the monolayer and the amount of FITC-dextran that permeated through the monolayer was quantified by measuring fluorescence in a Synergy 2 Multi-mode Microplate Reader (BioTek, Winooski, Vt.) at various time points over a 255 min time period.
# hPPAEC [1] = test: Thrombin dose-response in hPPAEC monolayer permeability assay; type: cell-based, human; details: for EC50: read-out: EC50 for thrombin-induced impairment of hPPAEC barrier function; for maximal impairment of endothelial barrier function: 100% = permeability in the absence of hPPAEC
# Description: FIGS. 2A-2B show impairment of hPPAEC monolayer permeability by thrombin. (A) hPPAEC were grown to a confluent monolayer on collagen-coated permeable membranes and then exposed to different concentration of thrombin for 10 min, followed by the addition of FITC-dextran. Endothelial permeability was assessed by measuring the amount of FITC-dextran that permeated through the cell monolayer. No cells: 100% permeability. RFU: Relative fluorescence units. N=3 in quadruplicate. (B) Dose-response curves for thrombin-induced permeability, data from A. 100% permeability=permeability in the absence of hPPAEC. Open squares: Permeability at t=55 min. Light grey squares: Permeability at t=135 min. Dark grey squares: Permeability at t=255 min. Dose-response curves were generated using nonlinear regression analyses.
# as §3
# Data analysis—Data are expressed as mean±SEM from n independent experiments that were performed on different days. Data were analyzed with unpaired Student's t test, one- or two-way analyses of variance with Bonferroni's multiple comparison post hoc test, as appropriate. Dose-response curves were generated using nonlinear regression analyses. All analyses were performed with the GraphPad-Prism 7 software. A two-tailed P<0.05 was considered significant.
# hPPAEC [2] = test: Effects of CXCR4 agonists / CXCL12 variants on thrombin-induced impairment of hPPAEC monolayer permeability; type: cell-based, human
# Description: FIGS. 3A-3D show effects of CXCL12 and ubiquitin on thrombin-induced impairment of hPPAEC monolayer permeability. hPPAEC were grown to a confluent monolayer on collagen-coated permeable membranes. (A) hPPAEC were pre-treated with vehicle, 100 nM of CXCL12 or ubiquitin for 10 minutes, as indicated, and then exposed to thrombin (50 nM), followed by the addition of FITC-dextran. Vehicle: no thrombin. Endothelial permeability was assessed by measuring the amount of FITC-dextran that permeated through the cell monolayer. No cells: 100% permeability (open circles). RFU: Relative fluorescence units. N=3 in quadruplicate. *: p<0.05 vs. vehicle/thrombin. (B-D) hPPAEC were exposed to 35 nM of thrombin or vehicle. After 10 min, thrombin-exposed cells were treated with vehicle, CXCL12 (50 nM) and/or AMD3100 (10 μM) (B), with vehicle, ubiquitin (50 nM) and/or AMD3100 (10 μM) (C) or with various concentrations of ubiquitin (D) followed by the addition of FITC-dextran. The experimental conditions are indicated. Endothelial permeability was assessed by measuring the amount of FITC-dextran that permeated through the cell monolayer. RFU: Relative fluorescence units. N=3 in quadruplicate. *: p<0.05 vs. thrombin/vehicle (2-way ANOVA/Bonferroni's multiple comparison post hoc test).
# FIGS. 7A-7D show dose-dependent effects of CXCL12α/β, CXCL12 (3-68) and CXCL12 mutants K27A/R41A/R47A, R47E and S-S4V on thrombin-induced impairment of hPPAEC monolayer permeability. hPPAEC cells were grown to a confluent monolayer on collagen-coated permeable membranes. hPPAEC were then exposed to 35 nM of thrombin. After 10 min, thrombin-exposed cells were treated with vehicle or 50 nM (A), 5 nM (B), 0.5 nM (C) or 0.05 nM (D) of the various proteins, as indicated. In (D) 5 nM CXCL12a was used as a positive control. N=3 in quadruplicate.
# FIGS. 8A-8D show dose-dependent effects of CXCL12α, CXCL121 and CXCL122 on thrombin-induced impairment of hPPAEC monolayer permeability. hPPAEC cells were grown to a confluent monolayer on collagen-coated permeable membranes. hPPAEC were then exposed to 35 nM of thrombin. After 10 min, thrombin-exposed cells were treated with vehicle or 50 nM (A), 5 nM (B), 0.5 nM (C) or 0.05 nM (D) of the various proteins, as indicated. In (D) 5 nM CXCL12α was used as a positive control. N=3 in quadruplicate.
# FIGS. 9A-9B show inhibition of thrombin-induced hyper-permeability of hPPAEC by CXCL12/CXCL12 variants. % inhibition: % inhibition of thrombin-induced hyperpermeability. Data from FIGS. 7 and 8 at t=255 min. N=3 in quadruplicate. *: p<0.05 vs. CXCL12a (2-way ANOVA/Bonferroni's multiple comparison post hoc test).
# as §3
# [3] = tested on: animal model of acute respiratory distress syndrome (ARDS); test: Animal model of ARDS: lung ischemia reperfusion injury plus hemorrhage (P:F ratio, lung injury score); type: in vivo, Sprague-Dawley rats; details: 0.14 μmol/kg i.v. within 10 min after reperfusion; until t=300 min
# Description: Animals underwent 70 min of […] lung ischemia for 70 min plus hemorrhage to a MAP of 40 mmHg for the last 30 min of ischemia, followed by fluid resuscitation to a MAP of 60 mmHg until t=300 min. Arrow: drug injection. Dashed lines indicate the P:F ratio (mmHg) threshold values for the diagnosis of mild, moderate and severe ARDS. Vehicle: n=5. CXCL12: n=3. CXCL12: n=4. CXCL12-LM: n=3, CXCL12-LD: n=4. CXCL12 K27A/R41A/R47A: n=3. LI+HEM: lung ischemia reperfusion injury plus hemorrhage. Data are mean±SEM. *: p<0.05 vs. vehicle (2-way ANOVA/Dunnett's multiple comparisons test).
# FIGS. 12A-12C show lung histology after treatment with CXCL12 and engineered CXCR4 agonists A. Lung specimens were placed in formalin fixative solution and were then embedded in paraffin wax, sliced into 5 μm sections and stained with H&E. Representative images from H&E stained lung sections from animals after vehicle (left) and CXCL12 ([…], right treatment. B/C. Lung injury scores (B. uninjured (left) lung; C. injured (right) lung). Data are median±interquartile ranges. Data were analyzed with the Kruskal Wallis test with Dunn's multiple comparisons test. The level of statistical significance (p) vs. ctrl. (vehicle treatment) indicated.
# We tested therapeutic efficacy of wild-type CXCL12, CXXL12-locked dimer (LD), CXCL12-locked monomer (LM) and the triple mutant CXCL12 K27A/R41A/R47A in an animal model of acute respiratory distress syndrome (ARDS) (FIG. 11). All drugs were injected in a dose of 0.14 μmol/kg. Male Sprague-Dawley rats were anesthetized, orotracheally intubated, instrumented with arterial/venous catheters, and mechanically ventilated (PEEP 2 mmHg, FiO2 1.0). After a right lateral thoracotomy, a suture was tied around the hilum of the right lung. Animals underwent 70 min of right lung ischemia plus hemorrhage to a mean arterial blood pressure (MAP) of 40 mmHg for the last 30 min of lung ischemia. At t=70 min, the suture was removed, animals were ventilated with FiO2 1.0, PEEP 5 mmHg and resuscitated with crystalloids to a MAP of 60 mmHg until t=300 min. Vehicle and drugs were injected i.v. within 10 min after reperfusion.
# We further evaluated histomorphology of the lungs from animals treated with vehicle, wild-type CXCL12, CXCL12-LD and CXCXL12-LM utilizing a standardized lung injury score. Lung slides stained with hematoxylin and eosin were examined under a light microscope by 4 investigators blinded to the identity of the specimens. The lung injury score was assessed as previously described/. In brief each investigator rendered a score of 0 (no damage) to 4+(maximal damage) based on an injury grading scale composed of six criteria. The slides were assessed for the extent of alveolar congestion, hemorrhage and edema, as well as alveolar and vessel wall PMN infiltration and alveolar wall thickness. […] Lung injury scores of the uninjured and injured lungs from animals treated with vehicle, wild-type CXCL12, CXCL12-LD and CXCXL12-LM are shown in FIGS. […], respectively.
# T1 sequence (P25106 whole entry, the tested form may be a part): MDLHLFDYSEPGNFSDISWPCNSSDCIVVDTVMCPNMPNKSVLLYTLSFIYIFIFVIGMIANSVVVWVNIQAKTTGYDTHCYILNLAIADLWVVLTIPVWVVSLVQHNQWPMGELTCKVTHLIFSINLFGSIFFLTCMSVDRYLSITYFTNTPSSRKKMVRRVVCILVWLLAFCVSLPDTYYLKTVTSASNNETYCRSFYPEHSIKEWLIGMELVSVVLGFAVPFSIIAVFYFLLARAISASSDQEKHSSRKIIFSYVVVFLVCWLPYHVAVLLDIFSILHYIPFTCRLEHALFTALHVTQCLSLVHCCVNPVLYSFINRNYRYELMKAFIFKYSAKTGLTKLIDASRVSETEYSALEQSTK
# T2 sequence (P61073 whole entry, the tested form may be a part): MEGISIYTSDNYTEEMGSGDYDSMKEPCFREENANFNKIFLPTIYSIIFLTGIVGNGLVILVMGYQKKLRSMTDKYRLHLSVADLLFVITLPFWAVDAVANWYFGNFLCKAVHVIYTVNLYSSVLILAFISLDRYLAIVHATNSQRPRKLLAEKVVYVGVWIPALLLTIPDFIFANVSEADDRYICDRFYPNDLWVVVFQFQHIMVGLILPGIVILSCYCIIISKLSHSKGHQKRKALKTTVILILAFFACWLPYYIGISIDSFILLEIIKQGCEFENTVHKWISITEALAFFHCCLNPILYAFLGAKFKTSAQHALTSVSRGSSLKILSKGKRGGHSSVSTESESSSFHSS
molecule,measurement,setting,value
CXCL12 R47E: CXCL12 mutant which activates CXCR4 with reduced potency,ACKR3 activity (in words),ACKR3,retains ACKR3 activity comparable to wild type proteins
same,"potency (EC50) to recruit β-arrestin 2 to CXCR4, compared with CXCL12α",CXCR4,significantly lower than the potency of CXCL12α
thrombin,EC50,HULEC-5a; after 55 min,64 ± 7 nM
same,EC50,HULEC-5a; after 135 min,64 ± 6 nM
same,EC50,HULEC-5a; after 255 min,57 ± 5 nM
same,EC50,hPPAEC [1]; after 55 min,30 ± 2 nM
same,EC50,hPPAEC [1]; after 135 min,33 ± 2 nM
same,EC50,hPPAEC [1]; after 255 min,36 ± 2 nM
same,maximal impairment of endothelial barrier function,hPPAEC [1]; at 55 min,49±3%
same,maximal impairment of endothelial barrier function,hPPAEC [1]; at 135 min,59±4%
same,maximal impairment of endothelial barrier function,hPPAEC [1]; at 255 min,72±4%
same,time to reach plateau for the permeability-inducing effects,hPPAEC [1]; thrombin 20 nM,55 min
same,time to reach plateau for the permeability-inducing effects,hPPAEC [1]; thrombin 40 nM,135 min
same,time to reach plateau for the permeability-inducing effects,hPPAEC [1]; thrombin 50 nM,255 min
same,time to reach plateau for the permeability-inducing effects,hPPAEC [1]; thrombin 100 nM,255 min
"CXCL12 (3-68): truncated CXCL12 (3-68), N-terminal truncated",efficacy for β-arrestin 2 recruitment to ACKR3,ACKR3,significantly reduced
same,effect on thrombin-mediated impairment of hPPAEC barrier function,"hPPAEC [2]; thrombin 35 nM, after 10 min 0.05-50 nM protein",did not attenuate thrombin-induced impairment of hPPAEC barrier function
same,efficacy to recruit β-arrestin 2 to CXCR4,"CXCR4; top plateau, % of signal for 1 μM CXCL12α",lacked relevant CXCR4 activity
"CXCL12 K27A/R41A/R47A: CXCL12 mutant with significantly reduced heparan sulfate proteoglycan binding properties (protein, ends and bridges not checked) KPVSLSYRCPCRFFESHVARANVKHLAILNTPNCALQIVAALKNNNAQVCIDPKLKWIQEYLEKALNK",EC50 (potency) for β-arrestin 2 recruitment to ACKR3,ACKR3,retained high potency to activate ACKR3
same,potency to attenuate thrombin-induced permeability of hPPAEC (in words),hPPAEC [2],same potency as wild type proteins and CXCL121
same,development of ARDS (P:F ratio),[3],indistinguishable from vehicle treated animals
same,"potency (EC50) to recruit β-arrestin 2 to CXCR4, compared with CXCL12α",CXCR4,significantly lower than the potency of CXCL12α; also recorded: lowest potency to activate CXCR4
